Reference: paper PMC12223813, “Antiproliferative and Trypanocidal Activity of Ivermectin Bioconjugates” (ACS Omega, 2025)

Experiments:
[1] = test system: HaCaT, human immortalized keratinocyte cell line; assay: Cytotoxicity toward normal cells, MTT assay; format: cell-based; details: 72 h, mean ± SD
Method: (§1) Additionally, to assess the selectivity of these compounds toward cancer cells, we included an immortalized keratinocyte cell line from adult human skin (HaCaT) in the antiproliferative activity tests. Doxorubicin served as the reference anticancer drug.
(§2) The culture media were enriched with 10% fetal bovine serum (FBS, Sigma-Aldrich, St. Louis, MO, USA), 20 mM HEPES (Biowest, Nuaillé, France), and antibiotics (100 U/mL penicillin and 100 μg/mL streptomycin) obtained from Gibco (Grand Island, NY, USA). The cells were maintained in a humidified incubator at 37 °C with 5% CO2 until they reached 80–90% confluence, after which they were used for further experiments.
(§3) To assess the cytotoxicity, the cells (0.5 × 10^4/well) were plated in 96-well plates and allowed to adhere for 24 h. The MTT (3-(4,5-dimethylthiazol-2-yl)-2,5-diphenyltetrazolium bromide) assay was used to evaluate the cytotoxic effects of IVR bioconjugates on all tested cell lines. After 24 h incubation, cells were exposed to varying concentrations (1 to 100 μM) of the test compounds for 72 h. Following the treatment, the medium was discarded, and a 0.5 mg mL^–1 MTT solution was added to each well and incubation was continued for another 4 h. Mitochondrial enzyme activity facilitated the formation of formazan crystals, which were subsequently dissolved in DMSO-isopropanol (1:1, v/v), producing a violet-colored solution. A 100 μL aliquot of this solution was transferred to the well, and absorbance was recorded at 570 nm using a MultiscanGo spectrophotometer (ThermoFisher Scientific, Carlsbad, CA, USA).
(§4) Cytotoxicity was quantified by comparing the absorbance of the treated cells to that of untreated controls using the formula: [A]/[B] × 100, where [A] represents the absorbance of the treated sample and [B] corresponds to the absorbance of the control sample. A decrease in MTT levels reflects a decrease in cell viability.

[2] = test system: A549, human lung cancer cell line; assay: Antiproliferative activity, MTT assay; format: cell-based; details: for IC50: Homo sapiens, A549, 72 h, MTT, mean ± SD; for A549 SI: SI = IC50 HaCaT/IC50 A549
Method: as §1, §2, §3, §4

[3] = test system: HCT-116, human primary colon cancer cell line; assay: Antiproliferative activity, MTT assay; format: cell-based; details: for IC50: Homo sapiens, HCT-116, 72 h, MTT, mean ± SD; for HCT-116 SI: SI = IC50 HaCaT/IC50 HCT-116
Method: as §1, §2, §3, §4

[4] = test system: MDA-MB-231, human triple-negative breast cancer cell line; assay: Antiproliferative activity, MTT assay; format: cell-based; details: for IC50: Homo sapiens, MDA-MB-231, 72 h, MTT, mean ± SD; for MDA-MB-231 SI: SI = IC50 HaCaT/IC50 MDA-MB-231
Method: as §1, §2, §3, §4

[5] = test system: PC3, human metastatic prostate cancer cell line; assay: Antiproliferative activity, MTT assay; format: cell-based; details: for IC50: Homo sapiens, 72 h, MTT, mean ± SD; for PC3 SI: SI = IC50 HaCaT/IC50 PC3
Method: as §1, §2, §3, §4

[6] = test system: human promyelocytic leukemia HL-60 cells; assay: Cytotoxic activity, resazurin cell viability assay; format: cell-based; details: 72 h total (24 h + 48 h with resazurin), mean ± SD of three independent experiments
Method: (§5) The trypanocidal and cytotoxic activities of the newly synthesized IVR bioconjugates and their conjugation partners were determined for bloodstream forms of T. brucei brucei and human myeloid HL-60 cells in vitro using the resazurin cell viability assay as previously described.
(§6) Test compounds were assayed at 10-fold dilutions ranging from 100 μM to 1 nM in the presence of 0.9% DMSO. Controls were grown in the culture medium containing only 0.9% DMSO. The assays were cultured in an incubator at 37 °C in a humidified atmosphere containing 5% CO2. After 24 h incubation, 20 μL of 0.5 mM resazurin (prepared in sterile PBS) was added, and the cultures were grown for another 48 h. Then, the proliferation of the cells was determined by measuring the absorbance at 570 nm (test wavelength) and 630 nm (reference wavelength) using a microplate reader.

[7] = test system: bloodstream forms of T. b. brucei (427-221a clone); assay: microbe, parasite or virus in culture; details: for selectivity GI50 ratio: GI50(HL-60)/GI50(T. brucei); for GI50: Trypanosoma brucei, 72 h, read-out: T. brucei GI50, bloodstream forms, 72 h total (24 h + 48 h with resazurin), mean ± SD of three independent experiments
Method: as §5, §6

Structure (SMILES)	IC50 [1]	IC50 [2]	A549 SI [2]	IC50 [3]	HCT-116 SI [3]	IC50 [4]	MDA-MB-231 SI [4]	IC50 [5]	PC3 SI [5]	GI50 [6]	selectivity GI50 ratio [7]	GI50 [7]
Cc1cn([C@H]2C[C@H](N=[N+]=[N-])[C@@H](CO)O2)c(=O)[nH]c1=O [azidothymidine, reference compound]	> 100 µM	72.1 ± 11.6 µM	>1.4	60.2 ± 9.7 µM	>1.7	52.2 ± 4.1 µM	>1.9	64.3 ± 3.7 µM	>1.6	> 100 µM	>5.2	> 10 µM
C=C(C)[C@@H]1CC[C@]2(C(=O)O)CC[C@]3(C)[C@H](CC[C@@H]4[C@@]5(C)CC[C@H](O)C(C)(C)[C@@H]5CC[C@]43C)[C@@H]12 [betulinic acid, reference compound]	> 100 µM	98.1 ± 3.1 µM	>1.0	80.1 ± 6.1 µM	>1.2	46.5 ± 4.6 µM	>2.2	66.6 ± 2.3 µM	>1.5	42.5 ± 2.5 µM	2.8	15.4 ± 4.4 µM
C=C[C@H]1CN2CC[C@H]1C[C@H]2[C@H](OC(=O)O[C@@H]1/C(C)=C/C[C@@H]2C[C@@H](C[C@]3(CC[C@H](C)[C@@H]([C@@H](C)CC)O3)O2)OC(=O)[C@@H]2C=C(C)[C@@H](O)[C@H]3OC/C(=C\C=C\[C@@H]1C)[C@]32O)c1ccnc2ccccc12 [compound 7, Ivermectin–Cinchonidine Conjugate]	50.3 ± 4.9 µM	13.6 ± 1.1 µM	3.7	20.1 ± 3.7 µM	2.5	22.4 ± 1.2 µM	2.2	7.2 ± 3.8 µM	7.0	47.2 ± 3.7 µM	20.5	2.3 ± 0.3 µM
C=C[C@H]1CN2CC[C@H]1C[C@@H]2[C@@H](OC(=O)O[C@@H]1/C(C)=C/C[C@@H]2C[C@@H](C[C@]3(CC[C@H](C)[C@@H]([C@@H](C)CC)O3)O2)OC(=O)[C@@H]2C=C(C)[C@@H](O)[C@H]3OC/C(=C\C=C\[C@@H]1C)[C@]32O)c1ccnc2ccc(OC)cc12 [compound 5, Ivermectin–Quinidine Conjugate]	14.9 ± 1.6 µM	42.3 ± 0.5 µM	0.4	13.8 ± 3.5 µM	1.1	10.1 ± 1.4 µM	1.5	12.4 ± 2.1 µM	1.2	22.9 ± 11.2 µM	17.6	1.3 ± 0.4 µM
C=C(C)C1CCC2(C(=O)OCc3cn(CC(=O)OC4C(C)=CCC5CC(CC6(CCC(C)C(C(C)CC)O6)O5)OC(=O)C5C=C(C)C(O)C6OCC(=CC=CC4C)C56O)nn3)CCC3(C)C(CCC4C5(C)CCC(O)C(C)(C)C5CCC43C)C12 (stereo not drawn) [compound 15, Ivermectin–Betulinic Acid Conjugate]	> 100 µM	> 100 µM	∼1.0	70.1 ± 6.4 µM	>1.4	> 100 µM	∼1.0	93.9 ± 6.4 µM	>1.1	> 100 µM	>4.6	21.9 ± 2.1 µM
C=C[C@H]1C[N@@]2CC[C@H]1C[C@@H]2[C@@H](O)c1ccnc2ccc(OC)cc12 [quinidine, reference compound]	> 100 µM	55.8 ± 5.3 µM		67.4 ± 8.9 µM		76.2 ± 4.6 µM		86.1 ± 1.2 µM		> 100 µM		0.32 ± 0.04 µM
C=C[C@H]1CN2CC[C@H]1C[C@H]2[C@H](O)c1ccnc2ccccc12 [cinchonidine, reference compound]	> 100 µM	> 100 µM	∼1.0	87.1 ± 12.1 µM	>1.1	> 100 µM	∼1.0	86.7 ± 3.9 µM	>1.2	> 100 µM	>47.6	2.1 ± 0.6 µM
C[C@H]1[C@H](OC(=O)CCC(=O)O)O[C@@H]2O[C@@]3(C)CC[C@H]4[C@H](C)CC[C@@H]1[C@@]24OO3 [artesunate, reference compound]	5.7 ± 0.1 µM	24 ± 6.9 µM	0.2	37.8 ± 4.2 µM	0.2	12.6 ± 3.9 µM	0.5	48.5 ± 5.7 µM	0.1	30.8 ± 9 µM	8.6	3.6 ± 0.2 µM
Cc1ncc([N+](=O)[O-])n1CCO [metronidazole, reference compound]	> 100 µM	> 100 µM	∼1.0	> 100 µM	∼1.0	14.9 ± 3.9 µM	>6.7	57 ± 6.1 µM	>1.8	> 100 µM	∼1.0	
CC[n+]1c(-c2ccccc2)c2cc(N)ccc2c2ccc(N)cc21 [ethidium bromide, reference compound]										9.3 ± 2.6 µM	202	
COc1cccc2c1C(=O)c1c(O)c3c(c(O)c1C2=O)C[C@@](O)(C(=O)CO)C[C@@H]3O[C@H]1C[C@H](N)[C@H](O)[C@H](C)O1 [doxorubicin, reference compound]	0.29 ± 0.1 µM	0.63 ± 0.2 µM		0.6 ± 0.02 µM		1.83 ± 0.1 µM		0.6 ± 0.02 µM				
Cc1ccc(C(=O)Nc2ccc(S(=O)(=O)O)c3cc(S(=O)(=O)O)cc(S(=O)(=O)O)c23)cc1NC(=O)c1cccc(NC(=O)Nc2cccc(C(=O)Nc3cc(C(=O)Nc4ccc(S(=O)(=O)O)c5cc(S(=O)(=O)O)cc(S(=O)(=O)O)c45)ccc3C)c2)c1 [suramin, reference compound]										> 100 µM		0.039 ± 0.004 µM
